Assay results as given in patent US6372733B1, “Hexahydro-5-imino-1,4-1,4-thiazepine derivatives as inhibitors of nitric oxide synthases” (Merck & Co., Inc., priority 1995, dated 2002).
Where a name gives a salt, the structure may show the parent alone. Read-outs that look alike come from different tables or passages of the source.

Key:
Type in all cases: biochemical
ecNOS = ecNOS (Homo sapiens, UniProt P29474); assay: Assay Protocol for NOS Activity: formation of L-[3H]Citrulline from L-[3H]Arginine, ecNOS
Protocol: (§1) NOS activity is measured as the formation of L-[2,3,4,5-^3H]Citrulline from L-[2,3,4,5-^3H]Arginine. The incubation buffer (100 uL) contained; 100 mM TES, pH 7.5, 5 μM FAD, 5 μM FMN, 10 μM BH4, 0.5 mM NADPH, 0.5 mM DTT, 0.5 mg/mL BSA, 2 mM CaC12, 10 ug/mL calmodulin (bovine), 1 μM L-Arg, 0.2 uCi L-[2,3,4,5-^3H]Arg, and the inhibitor in aqueous DMSO (max. 5%). The reaction is initiated by addition of enzyme. Incubations are performed at room temperature for 30 minutes and stopped by the addition of an equal volume of quenching buffer consisting of 200 mM sodium citrate, pH 2.2, 0.02% sodium azide. Reaction products are separated by passing through a cation exchange resin and quantitated as cpm by scintillation counting.

iNOS = iNOS (Homo sapiens, UniProt P35228); assay: Assay Protocol for NOS Activity: formation of L-[3H]Citrulline from L-[3H]Arginine, iNOS
Protocol: as §1

ncNOS = ncNOS (Homo sapiens, UniProt P29475); assay: Assay Protocol for NOS Activity: formation of L-[3H]Citrulline from L-[3H]Arginine, ncNOS
Protocol: as §1

[1] = 1 μM L-Arg, room temperature, 30 minutes, read-out: ecNOS (IC50)
[2] = 1 μM L-Arg, room temperature, 30 minutes, read-out: iNOS (IC50)
[3] = 1 μM L-Arg, room temperature, 30 minutes, read-out: ncNOS (IC50)

Structure (SMILES) | IC50 (ecNOS; [1]) [µM] | IC50 (iNOS; [2]) [µM] | IC50 (ncNOS; [3]) [µM] | IC50 (ecNOS) [µM] | IC50 (iNOS) [µM] | IC50 (ncNOS) [µM]
NC1=NCCNCC1 [Example 1, Hexahydro-5-imino-(1H-1,4-diazepine Dihydrochloride] | > 50 | > 50 | > 50 |  |  | 
NC1=NCCSCC1 [Example 2, Hexahydro-5-imino-1,4-thiazepine Hydrochloride] | > 10 | < 10 | < 10 |  |  | 
NC1=NCCOCC1 [Example 3, Hexahydro-5-imino-1,4-oxazepine Hydrochloride.] | < 50 | < 50 | < 10 |  |  | 
CCCC1CSCCC(N)=N1 (stereo not drawn) [Example 4, Hexahydro-5-imino-3-propyl-1,4-thiazepine Hydrochloride] |  |  |  | < 50 | < 1 | < 10
CC1CC(N)=NCCS1 (stereo not drawn) [Example 6, Hexahydro-5-imino-7-methyl-1,4-thiazepine Hydrochloride] | < 10 | < 10 | < 1 |  |  | 
CC1CN=C(N)CCS1 (stereo not drawn) [Example 7, Hexahydro-5-imino-2-methyl-1,4-thiazepine Hydrochloride] | < 10 | < 10 | < 1 |  |  | 
CC(C)CC1CSCCC(N)=N1 (stereo not drawn) [Example 11, Hexahydro-5-imino-3-(2-methyl-propyl)-1,4-thiazepine Hydrochloride] | > 50 | < 1 | < 10 |  |  | 
CC1CSCCN=C1N (stereo not drawn) [Example 12, Hexahydro-5-imino-6-methyl-1,4-thiazepine Hydrochloride] | < 50 | > 50 | < 10 |  |  | 
CC1CSCCC(N)=N1 (stereo not drawn) [Example 13, Hexahydro-5-imino-3-methyl-1,4-thiazepine Hydrochloride] | < 10 | < 1 | < 10 |  |  | 
CCC1CSCCC(N)=N1 (stereo not drawn) [Example 14, Hexahydro-5-imino-3-ethyl-1,4-thiazepine Hydrochloride] | < 50 | < 1 | < 10 |  |  | 
CCCCC1CSCCC(N)=N1 (stereo not drawn) [Example 15, Hexahydro-5-imino-3-butyl-1,4-thiazepine. Hydrochloride] | > 50 | < 1 | < 10 |  |  | 
CN1CCN=C(N)CC1 [Example 20, Hexahydro-5-imino-1-methyl-1H-1,4-diazepine Hydrochloride.] | > 50 | < 50 | > 50 |  |  | 

Further lines, results first:

IC50 (ecNOS; [1]) [µM] | IC50 (iNOS; [2]) [µM] | IC50 (ncNOS; [3]) [µM] | IC50 (ecNOS) [µM] | IC50 (iNOS) [µM] | IC50 (ncNOS) [µM] | Structure (SMILES)
> 50 | > 50 | > 50 |  |  |  | N=C1CCS[C@H]2CCCC[C@@H]2N1 (racemic) [Example 17, (±)-trans-Decahydro-4-imino-benzo[b]-1,4-thiazepine Acetic Acid Salt]
> 50 | > 50 | > 50 |  |  |  | CCCC1CSCCNC1=N (stereo not drawn) [Example 5, Hexahydro-5-imino-6-propyl-1,4-thiazepine Hydrochloride]
> 50 | > 50 | > 50 |  |  |  | CC(C)=CCC1CSCCNC1=N (stereo not drawn) [Example 8, Hexahydro-5-imino-6-(3-methyl-2-n-butenyl)-1,4-thiazepine Hydrochloride]
> 50 | < 1 | < 50 |  |  |  | CC(C)=CCC1CSCCC(=N)N1 (stereo not drawn) [Example 9, Hexahydro-5-imino-3-(3-methyl-2-n-butenyl)-1,4-thiazepine Hydrochloride]
> 50 | < 50 | > 50 |  |  |  | CC(C)CC1CSCCNC1=N (stereo not drawn) [Example 10, Hexahydro-5-imino-6-(2-methyl-propyl)-1,4-thiazepine Hydrochloride]
< 50 | < 1 | < 10 |  |  |  | C=C(C)CC1CSCCC(=N)N1 (stereo not drawn) [Example 16, Hexahydro-5-imino-3-(2-methyl-3-propenyl)-1,4-thiazepine Hydrochloride.]
 |  |  | < 10 | < 1 | < 1 | CCC[C@H]1CSCCC(N)=N1 [Example 18, Hexahydro-5-imino-3(S)-propyl-1,4-thiazepine, Acetic Acid Salt]
 |  |  | < 50 | < 10 | < 10 | CCC[C@@H]1CSCCC(=N)N1 [Example 19, Hexahydro-5-imino-3(R)-propyl-1,4-thiazepine Acetic Acid Salt]
